The source of these data is ChEMBL document CHEMBL3217540, “New 3-amidinophenylalanine-derived inhibitors of matriptase” (Medchemcomm, 2012).

Test [1] concerns the target T1, Suppressor of tumorigenicity 14 protein (Homo sapiens, UniProt Q9Y5Y6).
T1 sequence (Q9Y5Y6 whole entry): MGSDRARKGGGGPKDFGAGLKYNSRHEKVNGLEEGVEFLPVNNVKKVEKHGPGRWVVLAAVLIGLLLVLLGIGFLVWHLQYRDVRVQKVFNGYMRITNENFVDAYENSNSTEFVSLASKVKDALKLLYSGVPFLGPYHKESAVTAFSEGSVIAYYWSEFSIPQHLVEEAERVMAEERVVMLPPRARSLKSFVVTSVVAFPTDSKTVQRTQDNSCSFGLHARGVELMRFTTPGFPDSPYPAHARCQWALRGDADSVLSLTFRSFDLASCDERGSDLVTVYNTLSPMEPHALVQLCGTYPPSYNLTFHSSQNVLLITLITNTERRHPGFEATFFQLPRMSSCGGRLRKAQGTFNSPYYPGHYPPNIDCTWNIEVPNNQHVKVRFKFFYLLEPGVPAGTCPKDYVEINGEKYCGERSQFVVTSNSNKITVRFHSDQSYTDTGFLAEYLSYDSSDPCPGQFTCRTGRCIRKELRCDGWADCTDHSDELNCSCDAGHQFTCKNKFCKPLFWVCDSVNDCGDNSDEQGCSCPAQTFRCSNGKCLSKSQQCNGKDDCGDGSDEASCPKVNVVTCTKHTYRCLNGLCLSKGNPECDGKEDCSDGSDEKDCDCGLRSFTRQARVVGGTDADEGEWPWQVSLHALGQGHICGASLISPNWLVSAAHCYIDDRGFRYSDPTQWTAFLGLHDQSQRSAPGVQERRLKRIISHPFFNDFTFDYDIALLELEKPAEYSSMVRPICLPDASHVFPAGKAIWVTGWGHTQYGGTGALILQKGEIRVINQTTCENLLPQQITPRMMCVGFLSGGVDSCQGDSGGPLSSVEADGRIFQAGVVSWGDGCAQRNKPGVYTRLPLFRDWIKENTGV
Kind of test: Inhibition of matriptase (unknown origin) using MeSO2-D-Cha-Gly-Arg-pNA as substrate.

The target of the next test is Coagulation factor X (Homo sapiens, UniProt P00742). In words: Inhibition of human factor 10a using CH3OCO-D-Cha-Gly-Arg-pNA as substrate.
A further test has as its target Prothrombin (Bos taurus, UniProt P00735). In words: Inhibition of bovine thrombin using MeSO2-D-Cha-Gly-Arg-pNA as substrate.
For test [2], the target named is T2, Transmembrane protease serine 6 (Homo sapiens, UniProt Q8IU80).
T2 sequence (Q8IU80 whole entry): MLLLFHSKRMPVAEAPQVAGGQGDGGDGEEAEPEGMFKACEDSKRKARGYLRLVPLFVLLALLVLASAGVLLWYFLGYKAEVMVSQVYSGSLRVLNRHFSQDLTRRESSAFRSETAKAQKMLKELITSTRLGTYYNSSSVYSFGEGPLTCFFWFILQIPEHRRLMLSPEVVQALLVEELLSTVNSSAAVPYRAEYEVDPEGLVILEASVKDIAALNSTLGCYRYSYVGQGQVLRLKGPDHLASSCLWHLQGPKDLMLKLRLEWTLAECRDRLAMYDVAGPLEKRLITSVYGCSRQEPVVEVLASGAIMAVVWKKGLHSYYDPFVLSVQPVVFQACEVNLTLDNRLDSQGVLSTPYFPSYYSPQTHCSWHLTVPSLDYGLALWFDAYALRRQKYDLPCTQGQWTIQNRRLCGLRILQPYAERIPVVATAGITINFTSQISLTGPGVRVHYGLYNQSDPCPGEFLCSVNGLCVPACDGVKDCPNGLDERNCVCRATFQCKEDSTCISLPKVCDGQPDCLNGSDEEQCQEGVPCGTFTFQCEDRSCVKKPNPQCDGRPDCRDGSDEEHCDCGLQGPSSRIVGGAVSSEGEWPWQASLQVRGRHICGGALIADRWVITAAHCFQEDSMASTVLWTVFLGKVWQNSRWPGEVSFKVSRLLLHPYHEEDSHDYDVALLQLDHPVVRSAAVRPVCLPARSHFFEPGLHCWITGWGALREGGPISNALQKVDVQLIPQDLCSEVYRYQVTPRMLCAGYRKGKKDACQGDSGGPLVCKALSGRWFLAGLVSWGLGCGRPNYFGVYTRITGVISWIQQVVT
Kind of test: Inhibition of matriptase-2 (unknown origin) expressed in HEK293 cells using ln-Ala-Arg-a-Arg-para-nitroanilide as substrate by UV-vis spectrophotometry. It is filed as cell-based.

Chain of Coagulation factor X (P00742 41-179 limits assumed): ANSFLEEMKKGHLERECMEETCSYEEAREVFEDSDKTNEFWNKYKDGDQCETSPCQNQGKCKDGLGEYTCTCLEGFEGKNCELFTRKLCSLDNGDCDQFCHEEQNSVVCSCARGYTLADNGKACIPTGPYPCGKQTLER
Chain of Coagulation factor X (P00742 235-488 limits assumed): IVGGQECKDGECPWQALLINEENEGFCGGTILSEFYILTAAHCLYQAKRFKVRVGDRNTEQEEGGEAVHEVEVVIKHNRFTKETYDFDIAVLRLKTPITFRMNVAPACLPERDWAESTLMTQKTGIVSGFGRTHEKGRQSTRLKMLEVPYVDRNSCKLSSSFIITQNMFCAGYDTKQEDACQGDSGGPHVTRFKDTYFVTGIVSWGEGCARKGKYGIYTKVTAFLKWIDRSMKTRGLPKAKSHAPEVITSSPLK

`N=C(N)c1cccc(C[C@H](NS(=O)(=O)c2cccc(NC(=O)CCN)c2)C(=O)N2CCC(NC(=O)Nc3ccccc3)CC2)c1`: the Ki – broadly, a measure of affinity in units of concentration, obtained from inhibition or displacement – in test [1] was found to be 0.014 µM; on Coagulation factor X it was 3.41 µM; at Prothrombin it was 9.25 µM; in test [2], 1.3 µM.
For `CNC(=O)NCCC1CCN(C(=O)[C@H](Cc2cccc(C(=N)N)c2)NS(=O)(=O)c2cccc(NC(=O)CCN)c2)CC1`, in that order: 0.007 µM, 7.07 µM, 0.04 µM and 1.2 µM.
The like results for `CNC(=O)CCCC1CCN(C(=O)[C@H](Cc2cccc(C(=N)N)c2)NS(=O)(=O)c2cccc(-c3ccc(Cl)cc3Cl)c2)CC1` were, in that order, 0.013 µM, 0.032 µM, 0.001 µM and 0.35 µM.
The like results for `CNC(=O)CCCC1CCN(C(=O)[C@H](Cc2cccc(C(=N)N)c2)NS(=O)(=O)c2cccc(-c3ccccc3F)c2)CC1` were, in that order, 0.12 µM, 1.1 µM, 0.002 µM and 3 µM.
Take `CNC(=O)NC1CCN(C(=O)[C@H](Cc2cccc(C(=N)N)c2)NS(=O)(=O)c2cccc(NC(=O)CCN)c2)CC1`: the Ki in test [1] was 0.056 µM; on Coagulation factor X, 14.1 µM; at Prothrombin, 10.8 µM; in test [2], 1.3 µM.
The like results for `N=C(N)c1cccc(C[C@H](NS(=O)(=O)c2cccc(NC(=O)CCN)c2)C(=O)N2CCC(NC(=O)NC3CCCCC3)CC2)c1` were, in that order, 0.008 µM, 1.2 µM, 35.9 µM and 0.79 µM.
The like results for `N=C(N)c1cccc(C[C@H](NS(=O)(=O)c2cccc(NC(=O)CCN)c2)C(=O)N2CCC(NC(=O)NCc3ccccc3)CC2)c1` were, in that order, 0.026 µM, 2.45 µM, 7.84 µM and 1.1 µM.
Turning to `CCOc1ccc(-c2cccc(S(=O)(=O)N[C@@H](Cc3cccc(C(=N)N)c3)C(=O)N3CCC(CCCC(=O)NC)CC3)c2)c(Cl)c1`, the inhibition constant (Ki) turned out to be 0.049 µM in test [1], 0.18 µM at Coagulation factor X, 0.03 µM at Prothrombin and 1.3 µM in test [2].
`N=C(N)c1cccc(C[C@H](NS(=O)(=O)c2cccc(NC(=O)CCN)c2)C(=O)N2CCC(CCNC(=O)Nc3ccccc3)CC2)c1`: the Ki worked out at 0.011 µM in test [1], 2.61 µM on Coagulation factor X, 0.44 µM at Prothrombin and 1.9 µM in test [2].
For the molecule `N=C(N)c1cccc(C[C@H](NS(=O)(=O)c2cccc(-c3ccc(Cl)c(Cl)c3)c2)C(=O)N2CCC(CCN)CC2)c1`, the Ki is 0.018 µM in test [1], 0.03 µM on Prothrombin and 0.58 µM in test [2].
With `CNC(=O)CCCC1CCN(C(=O)[C@H](Cc2cccc(C(=N)N)c2)NS(=O)(=O)c2cccc(-c3cccc(F)c3)c2)CC1`, the Ki in test [1] was 0.13 µM; at Coagulation factor X it was 3.05 µM; on Prothrombin, 0.006 µM; in test [2], 10 µM.
Take `N=C(N)c1cccc(C[C@H](NS(=O)(=O)c2cccc(-c3ccc(F)cc3)c2)C(=O)N2CCC(CCN)CC2)c1`: the Ki in test [1] was determined as 0.033 µM; on Coagulation factor X it was 1.12 µM; at Prothrombin, 0.005 µM; in test [2], 3.2 µM.
In the case of `CNC(=O)CCCC1CCN(C(=O)[C@H](Cc2cccc(C(=N)N)c2)NS(=O)(=O)c2cccc(-c3ccc(OC)cc3OC)c2)CC1`, the Ki in test [1] was 0.008 µM; at Coagulation factor X it was 0.06 µM; on Prothrombin, 0.001 µM; in test [2], 0.77 µM.
Turning to `N=C(N)c1cccc(C[C@H](NS(=O)(=O)c2cccc(-c3ccccc3F)c2)C(=O)N2CCC(CCN)CC2)c1`, the Ki was determined as 0.023 µM in test [1], 0.81 µM on Coagulation factor X, 0.04 µM at Prothrombin and 2.1 µM in test [2].
The like results for `N=C(N)c1cccc(C[C@H](NS(=O)(=O)c2cccc(NC(=O)CCN)c2)C(=O)N2CCC(CCNC(=O)NC3CCCCC3)CC2)c1` were, in that order, 0.023 µM, 6.45 µM, 0.47 µM and 1.8 µM.
Consider `N=C(N)c1cccc(C[C@H](NS(=O)(=O)c2cccc(-c3cccc(Cl)c3Cl)c2)C(=O)N2CCC(CCN)CC2)c1`, for which the values for the Ki (in test [1]; at Prothrombin; in test [2]) were 0.011 µM, 0.02 µM and 0.21 µM, respectively.
Regarding `CCNC(=O)NCCC1CCN(C(=O)[C@H](Cc2cccc(C(=N)N)c2)NS(=O)(=O)c2cccc(NC(=O)CCN)c2)CC1`, the Ki in test [1] was 0.012 µM; on Coagulation factor X, 4.79 µM; at Prothrombin, 0.13 µM; in test [2], 0.46 µM.
In the case of `N=C(N)c1cccc(C[C@H](NS(=O)(=O)c2cccc(NC(=O)CCN)c2)C(=O)N2CCC(NC(N)=O)CC2)c1`, the Ki in test [1] worked out at 0.035 µM; at Coagulation factor X, 16.9 µM; on Prothrombin, 9.7 µM; in test [2] it was 3.9 µM.
In the case of `CNC(=O)CCCC1CCN(C(=O)[C@H](Cc2cccc(C(=N)N)c2)NS(=O)(=O)c2cccc(-c3ccc(Cl)c(Cl)c3)c2)CC1`, the inhibitory constant (Ki) in test [1] was 0.074 µM; at Coagulation factor X, 0.23 µM; on Prothrombin it was 0.003 µM; in test [2], 1.6 µM.
For `N=C(N)c1cccc(C[C@H](NS(=O)(=O)c2cccc(-c3ccc(Cl)cc3Cl)c2)C(=O)N2CCC(CCN)CC2)c1`, the Ki in test [1] turned out to be 0.002 µM; on Coagulation factor X, 0.05 µM; on Prothrombin, 0.02 µM; in test [2], 0.11 µM.
The like results for `N=C(N)c1cccc(C[C@H](NS(=O)(=O)c2cccc(-c3cccc(F)c3)c2)C(=O)N2CCC(CCN)CC2)c1` were, in that order, 0.052 µM, 3.2 µM, 0.04 µM and 3.2 µM.
For `N=C(N)c1cccc(C[C@H](NS(=O)(=O)c2cccc(NC(=O)CCN)c2)C(=O)N2CCC(CCNC(=O)NCc3ccccc3)CC2)c1`, in that order: 0.017 µM, 5.52 µM, 0.23 µM and 1.3 µM.
On to `CNC(=O)CCCC1CCN(C(=O)[C@H](Cc2cccc(C(=N)N)c2)NS(=O)(=O)c2cccc(-c3ccc(F)cc3)c2)CC1`, for which the Ki came to 0.12 µM in test [1], 0.55 µM on Coagulation factor X, 0.001 µM on Prothrombin and 4.4 µM in test [2].
As for `CCOc1ccc(-c2cccc(S(=O)(=O)N[C@@H](Cc3cccc(C(=N)N)c3)C(=O)N3CCC(CCN)CC3)c2)c(Cl)c1`, the Ki worked out at 0.013 µM in test [1], 0.17 µM at Coagulation factor X, 0.4 µM at Prothrombin and 0.4 µM in test [2].
For `N=C(N)c1cccc(C[C@H](NS(=O)(=O)c2cccc(NC(=O)CCN)c2)C(=O)N2CCC(CCNC(N)=O)CC2)c1`, the Ki is 0.014 µM in test [1], 13.9 µM on Coagulation factor X, 0.14 µM on Prothrombin and 3.3 µM in test [2].
For `CCNC(=O)NC1CCN(C(=O)[C@H](Cc2cccc(C(=N)N)c2)NS(=O)(=O)c2cccc(NC(=O)CCN)c2)CC1`, in that order: 0.039 µM, 8.89 µM, 15.3 µM and 2.4 µM.
The like results for `CNC(=O)CCCC1CCN(C(=O)[C@H](Cc2cccc(C(=N)N)c2)NS(=O)(=O)c2cccc(-c3cccc(Cl)c3Cl)c2)CC1` were, in that order, 0.051 µM, 0.26 µM, 0.004 µM and 0.75 µM.
